# Experiments:
# C57BL/6 hepatocytes = assay type: cell-based
# Description: FIGS. 16A-16F. In vivo activated allogeneic CTLs require target hepatocyte ASMase for efficient killing ex vivo. Hepatocytes, isolated as described in Example 1, were coincubated with splenic T cells harvested from lethally-irradiated wild type C57BL/6 recipients 10-14 days following transplantation of LP BM+T cells. FIG. 16A: 2×10^6 GvH-activated CTLs were coincubated with 0.5×10^6 wild type C57BL/6 or B6.MRL.1pr (FasR^−/−) hepatocytes (left panel) in complete medium for 16 hr. […] Apoptosis was quantified following fixation by nuclear bisbenzimide staining. FIG. 16B: asmase^−/− hepatocytes are resistant to apoptosis induced by GvH-activated CTLs. CTL coincubation was performed as in FIG. 16A and apoptosis was quantified 16 hr thereafter. FIG. 16C: Representative images of asmase^+/+ (top left panel) and asmase^−/− (bottom left panel) C57BL/6 hepatocytes following 10 min coincubation in suspension with 2×10^6 GvH-activated T cells. Hepatocytes were fixed and stained with DAPI and Cy-3-labelled anti-ceramide mAb as described in Example 1. Arrows indicate ceramide-rich platform generation on the outer leaflet of the plasma membrane. […] FIG. 16D: Quantification of ceramide-rich platforms in asmase^+/+ and asmase^−/− hepatocytes following incubation with 2×10^6 GvH-activated CTLs. […] Apoptosis was quantified as in FIG. 16A. […] 0.5×10^6 wild type hepatocytes, preincubated with 50 μg/mL nystatin for 30 min and resuspended in RPMI containing 1% lipid-free FBS, were coincubated with 2×10^6 GvH-activated T cells and apoptosis was quantified as in FIG. 16A. […]
# To assess whether ceramide-mediated raft clustering into membrane platforms is an essential component of cytolytic T cell (CTL)-induced apoptosis of hepatocytes, we blocked raft clustering pharmacologically and examined the impact on alloactivated CTL-induced hepatocyte apoptosis in vitro. […] Co-incubation induced increased hepatocyte apoptosis from a baseline of 4.7±0.7% to 33.8±1.9% by 16 hr, as detected by nuclear morphologic changes (FIG. 16A). […]
# C57BL/6 splenocytes = experiment: MLR-primed CTL-induced splenocyte lysis (51Cr release); assay type: cell-based, mouse; settings: 500 nM
# Description: To show the generic role of target cell ASMase in T cell-induced lysis, we used two standardized assays for T cell function; MLR-primed CTL-induced splenocyte lysis (FIG. 17) and in vitro activation-induced cell death (AICD) of T cells (FIG. 18). The role of target cell ASMase was assessed in an in vitro activated MLR, in which C57BL/6 splenocyte target cells of asmase^+/+ or asmase^−/− genotype were stimulated for 48 hrs with mitogen, washed and chromium labeled. These cells were then coincubated with effector Balb/c splenocytes activated for 5 days by culture with irradiated C57BL/6 splenocytes. Chromium release was quantified and the % lysis was calculated. […] Washed splenocytes cells were coincubated with increasing ratios of activated effector Balb/c T cells, and ^51Cr release was quantified 6 hour thereafter. […]
# To evaluate a potential generic role for target cell ASMase in platform generation in T cell-induced lysis, we tested two standardized assays for T cell-mediated cytolysis, MLR-primed CTL-induced splenocyte lysis, and in vitro AICD of T cells. […] Furthermore, MLR-primed CTLs induced 43.2±6.5% asmase^+/+ splenocyte lysis at an effector:target ratio of 50:1 (FIG. 19B), attenuated to 7.3±2.5% lysis in asmase^−/− target cells, as quantified by ^51Cr-release assay. […]
structure (smiles),measurement,setting,value
CCCCCCCCCCCCC/C=C/[C@@H](O)[C@H](CO)NC(=O)CCCCCCCCCCCCCCC [C16-ceramide],rescue of CTL-induced apoptosis in nystatin-treated hepatocytes,C57BL/6 hepatocytes,unable to overcome cholesterol chelation
same,CTL-induced lysis of asmase−/− target splenocytes,C57BL/6 splenocytes,restored
